Broadly, the IC50 is the concentration needed to halve the response being measured.

The target in this assay is Human immunodeficiency virus type 1 protease (Human immunodeficiency virus 1, UniProt Q72874). In words: Inhibitory activity against HIV-1 protease.
In turn, `CC(C)(C)OC(=O)N[C@@H](Cc1ccccc1)[C@@H](O)C[C@@H](Cc1ccccc1)C(=O)N[C@H]1c2ccccc2OC[C@H]1O` had an IC50 of 0.178 nM.
`CC(C)(C)OC(=O)N[C@@H](Cc1ccccc1)[C@@H](O)C[C@@H](Cc1ccccc1)C(=O)N[C@H]1C=CC[C@H]1O` gave an IC50 of 9.55 nM.
On to `CC(C)(C)OC(=O)N[C@@H](Cc1ccccc1)[C@@H](O)CC(=O)N[C@H]1c2ccccc2C[C@H]1O`, for which the IC50 is 562 nM. This IC50 is about 59-fold higher than that of the compound before.
In turn, `C[C@@H](NC(=O)[C@H](Cc1ccccc1)C[C@H](O)[C@H](Cc1ccccc1)NC(=O)OC(C)(C)C)c1ccccc1` had an IC50 of 145 nM. This IC50 lies about 3.9-fold lower than the previous one.
The same measure for `CC(C)(C)OC(=O)N[C@@H](Cc1ccccc1)[C@@H](O)C[C@@H](Cc1ccccc1)C(=O)N[C@H]1c2ccccc2CC[C@H]1O`: 0.692 nM; for `CC(C)(C)NC(=O)[C@@H]1C[C@@H]2CCCC[C@@H]2CN1C[C@@H](O)C[C@@H](Cc1ccccc1)C(=O)N[C@H]1c2ccccc2CC1O` (some centres not stated): 7.59 nM; for `CC(C)(C)NC(=O)[C@@H]1C[C@@H]2CCCC[C@@H]2CN1C[C@@H](O)[C@H](Cc1ccccc1)NC(=O)OC(C)(C)C`: 3020 nM.

Values taken from ChEMBL document CHEMBL1131491, “Comparative binding energy analysis of HIV-1 protease inhibitors: incorporation of solvent effects and validation as a powerful tool in receptor-based drug design” (J Med Chem, 1998).
